Drawing on patent publication US9815846B2 (Merck Sharp & Dohme Corp., priority 2014, dated 2017), this text covers IC50 for eight compounds.

The target of this test is human TrkA receptor (Homo sapiens (Human), UniProt P04629). The test is described as follows: DiscoverX PathHunter TrkA functional assay (NGF-stimulated U2OS cells). It counts as cell-based. The conditions noted are these: U2OS cells expressing human TrkA-PK, Shc1-EA and p75NTR; compound 1 h, then NGF at ~80% of maximal response for 3 h; luminescence.

The structures appear in SMILES notation.

Chain of human TrkA receptor (P04629 33-796): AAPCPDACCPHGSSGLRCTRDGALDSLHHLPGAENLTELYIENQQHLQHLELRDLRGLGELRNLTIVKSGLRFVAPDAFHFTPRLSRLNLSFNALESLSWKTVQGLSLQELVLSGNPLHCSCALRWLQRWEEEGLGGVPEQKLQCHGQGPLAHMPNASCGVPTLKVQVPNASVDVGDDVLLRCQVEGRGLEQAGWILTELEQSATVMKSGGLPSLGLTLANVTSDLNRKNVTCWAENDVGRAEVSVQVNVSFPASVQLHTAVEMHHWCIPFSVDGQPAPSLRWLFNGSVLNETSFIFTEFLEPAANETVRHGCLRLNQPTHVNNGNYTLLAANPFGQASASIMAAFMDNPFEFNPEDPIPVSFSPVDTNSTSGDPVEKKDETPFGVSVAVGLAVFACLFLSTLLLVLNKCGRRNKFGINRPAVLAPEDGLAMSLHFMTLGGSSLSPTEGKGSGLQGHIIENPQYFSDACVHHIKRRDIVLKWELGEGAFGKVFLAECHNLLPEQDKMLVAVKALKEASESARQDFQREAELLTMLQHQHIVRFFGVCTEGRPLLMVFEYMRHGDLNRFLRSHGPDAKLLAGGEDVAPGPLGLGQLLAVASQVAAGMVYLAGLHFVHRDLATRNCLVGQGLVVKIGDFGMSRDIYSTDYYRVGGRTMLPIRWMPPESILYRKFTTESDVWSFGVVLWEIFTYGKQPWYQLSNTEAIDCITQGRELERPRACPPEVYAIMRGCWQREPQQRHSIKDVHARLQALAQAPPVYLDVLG

With `Cn1ccc(-c2cc(C(=O)Nc3cnc(CN4CCCCC4=O)nc3-c3ccccc3)c(F)cc2C(F)(F)F)n1` [Example 220, 2-fluoro-5-(1-methyl-1H-pyrazol-3-yl)-N-(2-((2-oxopiperidin-1-yl)methyl)-4-phenylpyrimidin-5-yl)-4-(trifluoromethyl)benzamide], the IC50 was determined as 1 nM. Under `Cn1ccc(-c2cc(C(=O)Nc3cnc(CN4CCCCCC4=O)nc3-c3ccccc3)c(F)cc2C(F)(F)F)n1` [Example 221, 2-fluoro-5-(1-methyl-1H-pyrazol-3-yl)-N-(2-((2-oxoazepan-1-yl)methyl)-4-phenylpyrimidin-5-yl)-4-(trifluoromethyl)benzamide] stands 1.9 nM; under `Cn1ccc(-c2cc(C(=O)Nc3cnc(CN4CCCOC4=O)nc3-c3ccccc3)c(F)cc2C(F)(F)F)n1` [Example 222, 2-fluoro-5-(1-methyl-1H-pyrazol-3-yl)-N-(2-((2-oxo-1,3-oxazinan-3-yl)methyl)-4-phenylpyrimidin-5-yl)-4-(trifluoromethyl)benzamide], 0.22 nM. `Cn1ccc(-c2cc(C(=O)Nc3cnc(CN4CCOCC4=O)nc3-c3ccccc3)c(F)cc2C(F)(F)F)n1` [Example 223, 2-fluoro-5-(1-methyl-1H-pyrazol-3-yl)-N-(2-((3-oxomorpholino)methyl)-4-phenylpyrimidin-5-yl)-4-(trifluoromethyl)benzamide] yielded an IC50 of 1.6 nM. On to `Cn1ccc(-c2cc(C(=O)Nc3cnc(Cn4ccnc4)nc3-c3ccccc3)ccc2C(F)(F)F)n1` [Example 224, N-(2-((1H-imidazol-1-yl)methyl)-4-phenylpyrimidin-5-yl)-3-(1-methyl-1H-pyrazol-3-yl)-4-(trifluoromethyl)benzamide], for which the half-maximal inhibitory concentration (IC50) was 1.6 nM.

In turn, `Cn1ccc(-c2cc(C(=O)Nc3cnc(Cn4cccnc4=O)nc3-c3ccccc3)c(F)cc2C(F)(F)F)n1` [Example 225, 2-fluoro-5-(1-methyl-1H-pyrazol-3-yl)-N-(2-((2-oxopyrimidin-1(2H)-yl)methyl)-4-phenylpyrimidin-5-yl)-4-(trifluoromethyl)benzamide] came in with an IC50 of 1.2 nM. Under `Cn1ccc(-c2cc(C(=O)Nc3cnc(Cn4ccc(=O)[nH]c4=O)nc3-c3ccccc3)c(F)cc2C(F)(F)F)n1` [Example 226, N-(2-((2,4-dioxo-3,4-dihydropyrimidin-1(2H)-yl)methyl)-4-phenylpyrimidin-5-yl)-2-fluoro-5-(1-methyl-1H-pyrazol-3-yl)-4-(trifluoromethyl)benzamide] stands 0.35 nM; under `Cn1ccc(-c2cc(C(=O)Nc3cnc(Cn4cn[nH]c4=O)nc3-c3ccccc3)c(F)cc2C(F)(F)F)n1` [Example 227, 2-fluoro-5-(1-methyl-1H-pyrazol-3-yl)-N-(2-((5-oxo-1,5-dihydro-4H-1,2,4-triazol-4-yl)methyl)-4-phenylpyrimidin-5-yl)-4-(trifluoromethyl)benzamide], 0.24 nM.

As usually defined, the IC50 is the concentration at which inhibition is half-maximal. Higher therefore signals lower potency.
